Results taken from US12552767B2, “3-heteroaryl pyrrolidine and piperidine orexin receptor agonists” (Merck Sharp & Dohme LLC, priority 2020, dated 2026).
pEC50: −log10 of the molar value.

Biological target: T1, human OX2R (Homo sapiens, UniProt O43614)
T1 construct: expressed in transfected cells; host or cells: CHO (Chinese hamster ovary) cells, grown under G418 selection
T1 sequence (O43614 1-444): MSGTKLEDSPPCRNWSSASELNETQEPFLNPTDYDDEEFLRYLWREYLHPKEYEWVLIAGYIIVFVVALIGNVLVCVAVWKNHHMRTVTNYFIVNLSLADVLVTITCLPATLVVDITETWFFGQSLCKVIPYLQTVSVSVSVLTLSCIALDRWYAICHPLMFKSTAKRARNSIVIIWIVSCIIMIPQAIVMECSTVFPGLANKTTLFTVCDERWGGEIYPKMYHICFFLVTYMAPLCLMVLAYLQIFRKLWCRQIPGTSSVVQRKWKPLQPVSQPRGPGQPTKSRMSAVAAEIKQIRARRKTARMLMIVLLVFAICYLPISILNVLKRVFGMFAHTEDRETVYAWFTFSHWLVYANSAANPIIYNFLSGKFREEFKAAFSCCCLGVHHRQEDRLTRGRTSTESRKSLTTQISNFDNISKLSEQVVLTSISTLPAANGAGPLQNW
Assay: IP-One (IPOne) orexin receptor agonist assay in CHO cells expressing human OX2R
Type: cell-based
Details: for pEC50: CHO cells expressing human OX2R, IP-One IP-1 detection, 2 hours incubation, four parameter logistic fit, read-out: OX2R Potency, EC50; for % of reference agonist maximal effect: human OX2R, percentage of sample raw value/mean max effect (reference compound at 1 uM with 100% activity)
Description: The utility of the compounds in accordance with the present invention as orexin receptor OX1R and/or OX2R agonists may be readily determined without undue experimentation by methodology well known in the art. Both the OX1R and/or OX2R G-coupled protein receptors (GPCRs) couple through the Gαq signaling pathway, which ultimately promotes calcium mobilization via inositol triphosphate (IP3) production. The half-life of IP-3 is relatively short, being rapidly metabolized to inositol monophosphate (IP-1), which can be readily detected using a commercially available assay kit (IP-One; Cisbio; cat #621PAPEC) coupled with a cell line expressing the target receptor(s) of interest. The utility of the compounds in accordance with the present invention as orexin receptor OX1R and/or OX2R agonists may be determined utilizing this assay.
In a typical experiment, the OX1 and OX2 receptor agonist activity is determined in accordance with the following general experimental method. Chinese hamster ovary (CHO) cells expressing human OX1R and/or the human OX2R were grown in Iscove's modified DMEM containing glutaMAX™, 1% G418, 100 U/mL penicillin, 100 μg/mL streptomycin and 10% heat-inactivated qualified fetal bovine serum (FBS). The OX2R cells were seeded at 10,000 cells/well/50 μL and the OX1R cells were seeded at 20,000 cells/well/50 μL into 384-well white tissue culture plates (Greiner; cat #781080). All cell/media reagents were from GIBCO-Invitrogen Corp. The seeded cell plate(s) were incubated at 37° C. with 5% CO2 and 85% humidity for 20-24 hours. On the day of the assay, assay-ready compound plates were prepared using an acoustic liquid handler (ECHO; Labcyte), which dispensed sufficient volume of test compound stock (10 mM in DMSO) or 100% DMSO to prepare 10 point, ½-log dilutions in a final volume of 202.5 nL/well in all test wells of a 384-well diamond plate (Labcyte). Following completion of assay-ready plates, importantly, the next three steps were performed with minimal delay: 1) 20 μl of 1× stimulation buffer was added to the compound plate using a Multidrop Combi (small cassette, Thermo Fisher Scientific cat #24073290); 2) culture medium was removed from the cell plate using the Bluewasher plate washer (gentle spin; BlueCatBio); 3) 14 μl of compound/stimulation buffer mixture was added to the cell plate using a Bravo liquid handler (Agilent) prior to incubating cell plates at 37° C. with 5% CO2 and 85% humidity for 1 or 2 hours (OX1R and OX2R, respectively). During this incubation, IP-one detection reagents were prepared (38:1:1 lysis buffer:D2:AB-cryptate reagents). Six μL of mixed detection reagents were added to the cell plate using a Multidrop Combi (small cassette, Thermo Fisher Scientific cat #24073290) and incubated 60 minutes at room temperature in the dark. Fluorescence signal was detected using an Envision plate reader (Perkin Elmer) [LANCE/DELFIA Dual Enh (Em: APC 665; Ex: Cy5 620)].
For each compound, data were fit to a four parameter logistic fit (ActivityBase software) and the EC50 was reported as the inflection point of the resulting curve. Percent effect for each test compound was determined as the percentage of sample raw value/mean max effect, where the mean max effect was derived from the mean raw value of 32 control wells per assay plate (using Orexin A (cat #003-30) at 1 μM for human OX1R and a reference compound at 1 uM with 100% activity previously established by comparison to Orexin A for human OX2R). The intrinsic orexin receptor agonist activity of a compound which may be used in the present invention may be determined by these assays.

Structure (SMILES) | pEC50 | % of reference agonist maximal effect [%]
CCNC(=O)N1CCC[C@H](c2n[nH]cc2C)[C@@H]1CO[C@H]1CC[C@@H](c2cccc(F)c2)CC1 (racemic) [Example 10, (CIS)-N-ethyl-2-((((CIS)-4-(3-fluorophenyl)cyclohexyl)oxy)methyl)-3-(4-methyl-1H-pyrazol-3-yl)piperidine-1-carboxamide] | 8.32 | 100.8
COC(=O)N1C[C@@H](C)C[C@H](c2ccn[nH]2)[C@@H]1CO[C@H]1CC[C@@H](c2ccccc2)CC1 (racemic) [Example 39, (+/−) methyl (2R,3S,5S)-5-methyl-2-((((CIS)-4-phenylcyclohexyl)oxy)methyl)-3-(1H-pyrazol-5-yl)piperidine-1-carboxylate] | 5.70 | 94.8
COC(=O)N1C[C@@H](C)C[C@@H](c2ccn[nH]2)[C@@H]1CO[C@H]1CC[C@@H](c2ccccc2)CC1 (racemic) [Example 40, (+/−) methyl (2R,3R,5S)-5-methyl-2-((((CIS)-4-phenylcyclohexyl)oxy)methyl)-3-(1H-pyrazol-5-yl)piperidine-1-carboxylate] | 5.79 | 95.8
COC(=O)N1C[C@H](C)C[C@H](c2ccn[nH]2)[C@@H]1CO[C@H]1CC[C@@H](c2ccccc2)CC1 (racemic) [Example 41, (+/−) methyl (2R,3S,5R)-5-methyl-2-((((CIS)-4-phenylcyclohexyl)oxy)methyl)-3-(1H-pyrazol-5-yl)piperidine-1-carboxylate] | 5.63 | 95.4
COC(=O)N1CCC[C@H](c2n[nH]cc2Cl)[C@@H]1CO[C@H]1CC[C@@H](c2ccccc2Cl)CC1 (racemic) [Example 47, Methyl cis-3-(4-chloro-1H-pyrazol-3-yl)-2-((((CIS)-4-(2-chlorophenyl)cyclohexyl)oxy)methyl)piperidine-1-carboxylate] | 6.45 | 99.2
COC(=O)N1CCC[C@H](c2n[nH]cc2Cl)[C@@H]1CO[C@H]1CC[C@@H](c2ccc(Cl)cc2)CC1 (racemic) [Example 48, Methyl cis-3-(4-chloro-1H-pyrazol-3-yl)-2-((((CIS)-4-(4-chlorophenyl)cyclohexyl)-oxy)methyl)piperidine-1-carboxylate] | 6.04 | 97.6
COC(=O)N1CCC[C@H](c2nc(O)sc2C)[C@@H]1CO[C@H]1CC[C@@H](c2ccccc2)CC1 (relative stereo) [Example 2, Methyl (CIS)-3-(2-hydroxy-5-methylthiazol-4-yl)-2-((((CIS)-4-phenylcyclohexyl)oxy)-methyl)piperidine-1-carboxylate] | 7.82 | 101.9
CCNC(=O)N1CCC[C@H](c2ccn[nH]2)[C@@H]1COC1CCC(C(C)C)CC1 (relative stereo) [Example 3, (CIS)-N-ethyl-2-(((4-isopropylcyclohexyl)oxy)methyl)-3-(1H-pyrazol-5-yl)piperidine-1-carboxamide] | 6.17 | 99.9
COC(=O)N1CCC[C@H](c2n[nH]cc2C)[C@@H]1COC1CCN(c2ncccn2)CC1 (relative stereo) [Example 6, Methyl (CIS)-3-(4-methyl-1H-pyrazol-3-yl)-2-(((1-(pyrimidin-2-yl)piperidin-4-yl)oxy)methyl)piperidine-1-carboxylate] | 5.90 | 96.6
COC(=O)N1CCC[C@H](c2n[nH]cc2C)[C@@H]1COC1CCN(c2ncc(F)cn2)CC1 (relative stereo) [Example 7, methyl (CIS)-2-(((1-(5-fluoropyrimidin-2-yl)piperidin-4-yl)oxy)methyl)-3-(4-methyl-1H-pyrazol-3-yl)piperidine-1-carboxylate] | 5.82 | 95.7
COC(=O)N1CCC[C@H](c2n[nH]cc2C)[C@@H]1COC1CCN(c2ccccc2)CC1 (relative stereo) [Example 8, Methyl (CIS)-3-(4-methyl-1H-pyrazol-3-yl)-2-(((1-phenylpiperidin-4-yl)oxy)methyl)piperidine-1-carboxylate] | 5.23 | 80.9
Cc1c[nH]nc1[C@H]1CCCN(C(=O)OC(C)C)[C@H]1COC1CCN(c2ncccn2)CC1 (relative stereo) [Example 9, Isopropyl (CIS)-3-(4-methyl-1H-pyrazol-3-yl)-2-(((1-(pyrimidin-2-yl)piperidin-4-yl)oxy)methyl)piperidine-1-carboxylate] | 6.60 | 100.7
Cc1c[nH]nc1[C@@H]1CCCN(C(=O)C2CC2)[C@@H]1CO[C@H]1CC[C@@H](c2cccc(F)c2)CC1 (relative stereo) [Example 14] | 7.18 | 99.9
COC(=O)N1CCC[C@H](c2n[nH]cc2C)[C@@H]1CO[C@H]1CC[C@@H](c2cccc(F)c2)CC1 (relative stereo) [Example 15, methyl (CIS)-2-((((CIS)-4-(3-fluorophenyl)cyclohexyl)oxy)methyl)-3-(4-methyl-1H-pyrazol-3-yl)piperidine-1-carboxylate] | 6.93 | 99.3
Cc1c[nH]nc1[C@H]1CCCN(C(=O)OCC(F)F)[C@H]1CO[C@H]1CC[C@@H](c2cccc(F)c2)CC1 (relative stereo) [Example 16, 2,2-difluoroethyl (CIS)-2-((((CIS)-4-(3-fluorophenyl)cyclohexyl)oxy)methyl)-3-(4-methyl-1H-pyrazol-3-yl)piperidine-1-carboxylate] | 6.90 | 99.9
COC(=O)N1CCC[C@H](c2cc[nH]n2)[C@@H]1CO[C@H]1CC[C@@H](c2ccccc2)CC1 (relative stereo) [Example 21, methyl (CIS)-2-((((CIS)-4-phenylcyclohexyl)oxy)methyl)-3-(1H-pyrazol-3-yl)piperidine-1-carboxylate] | 5.68 | 79.9
CCNC(=O)N1CCC[C@H](c2ccnn2C)[C@@H]1CO[C@H]1CC[C@@H](c2ccccc2)CC1 (relative stereo) [Example 22, (CIS)-N-ethyl-3-(1-methyl-1H-pyrazol-5-yl)-2-((((CIS)-4-phenylcyclohexyl)oxy)methyl)piperidine-1-carboxamide] | 5.22 | 83.7
COC(=O)N1CCC[C@H](c2[nH]ncc2C)[C@@H]1CO[C@H]1CC[C@@H](c2ccccc2)CC1 (relative stereo) [Example 23, methyl (CIS)-3-(4-methyl-1H-pyrazol-5-yl)-2-((((CIS)-4-phenylcyclohexyl)oxy)methyl)piperidine-1-carboxylate] | 6.68 | 98.6
